US12187758B2 (ROME Therapeutics, Inc., priority 2022, dated 2025)
Like-named read-outs stand apart in the source and are kept apart here.

Legend:
Format in all cases: cell-based
THP1-Dual KO-TREX1 cells [1] = assay: THP1 TREX1 KO inhibition assay (type 1 interferon response); details: Homo sapiens, 144 h, type 1 interferon (QUANTI-LUC), 1 μM 5-aza-2′-deoxycytidine, six days
Procedure, shortened: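 THP1-Dual KO-TREX1 cells were treated with a dose titration of compound, alone or with 1 μM 5-aza-2′-deoxycytidine, for six days at 37 °C. Type 1 interferon was read as secreted luciferase (QUANTI-LUC) in the supernatant, and viability by CellTiter-Glo luminescence.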

human PBMC = assay: Decitabine-stimulated human PBMC assay; details: PBMCs, anti-CD3/anti-CD28, decitabine 10 μM, 5 days; FIGS. 3A and 3B
Description: EasySep buffer (32 mL, […] Technologies, cat. #20144) was used to dilute 8 mL of LRSC buffy coat (from fresh Leukopak) with gentle mixing. The diluted buffy coat (20 mL) was transferred into each of two SepMate 50 tubes, and the tubes were filled with 15 mL of Lyphoprep ([…], cat. #07851) density gradient. The SepMate tubes were then centrifuged at 1200 G for 10 minutes at room temperature with the brake on. The top layer of supernatant was collected in SepMate tubes by quickly pouring it into a new 50 mL conical tube. The PBMCs were washed with EasySep buffer×2 by centrifuging at 300 G for 5 minutes. The cells were resuspended in 30 mL of EasySep and centrifuged at 100 G for 5 minutes with the brake off, and the platelets were removed. The cells were then resuspended in 6 mL of 1×RBC lysis buffer (Invitrogen) and incubated at 37° C. for 5 minutes. 25 mL of EasySep buffer was then mixed into the tube and centrifuged at 300 G for 5 minutes. The cells were resuspended in 10 mL of EasySep buffer and the cells were then counted with Cellometer (AO/PI). The PBMCs were resuspended in RPMI1640 (ThermoFisher)+ 10% FBS (HyClone)+μ/s at 3×10^6/mL. The PBMCs (100 μL, 300 k PBMCs) were then seeded in a 96-well flat bottom microplate (Corning) that had been precoated with 100 μL of anti-CD3 antibody (10 μg/mL in PBS, Biolegend) or PBS at 4° C., one day before the assay was commenced.
To each well the following solutions were added 1) 100 μL of cells (final cell number per well is 3×10^5 cell/well); 2) 25 μL of anti-CD28 antibody at 6× (5 μg/mL final concentration, Biolegend); 3) 25 μL of decitabine at 6× (10 μM final concentration); and 4) Compound in DMSO was dispensed directly into each well with a d300e digital dispenser (Tecan). The final concentration of DMSO for each well was normalized to 0.3%. The plate was incubated at 37° C. without any agitation for 5 days. Samples were collected 120 hours after incubation to determine IFN-β […] levels using a U-PLEX Human IFN-β Assay Sector (5PL) (MSD, cat. #K151VIK-2).
After 5 days, the plate was spun down at 100×G for 5 minutes. Supernatants (100 μL) were collected for interferon R (IFN-0) analysis using the MSD assay noted above, and any residual supernatant was stored at −80° C.

[2] = Mitochondria toxicity assay with PC3 cells, in-cell ELISA COX-1; details: 5 days treatment
Procedure, shortened: (§1)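 This in-cell ELISA was run on fixed, permeabilized PC3 cells after 5-day exposure to titrated compound, with cytotoxicity measured on a duplicate plate. Results are reported as categories A (<1.0 μM) to E (>100.0 μM).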

[3] = system: SDH-A (succinate dehydrogenase-A); assay: Mitochondria toxicity assay with PC3 cells, in-cell ELISA SDH-A; details: 5 days treatment
Procedure, shortened: as §1

PC3 cells = assay: Mitochondria toxicity assay with PC3 cells, cytotoxicity (Cell Titer Glo); details: Homo sapiens, PC-3, 120 h, 5 days treatment
Procedure, shortened: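 PC3 cells in F-12K with 10% FBS exposed to a compound dose titration for 5 days at 37° C, 5% CO2. Viability by Cell Titer Glo luminescence after 30 min at room temperature; values binned A (<1.0 μM) to E (>100.0 μM).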

7S mitochondria DNA = assay: Mitochondria DNA assay with PC3 cells; details: Homo sapiens, PC-3, 120 h, 5 days, 7S mitochondria DNA level by qPCR relative to 18S or GAPDH
Description: Exemplary compounds were tested for their effect on levels of 7S mitochondria DNA, and the DNA of housekeeping genes 18S and GAPDH. Reduction of 7S mitochondria DNA indicates off-target inhibition of mitochondrial DNA synthesis, which leads to mitochondrial toxicity. Assay procedures and results are described below.
PC3 cells were purchased from ATCC and cultured in F-12 Kaighn's modified medium (Hyclone), 10% heat-inactivated fetal bovine serum (Gibco), 1% Penicillin-Streptomycin (Invitrogen). PC3 cells were treated with a dose titration of a test compound on 6 well plates for 5 days at 37° C., 5% CO2 in a humidified incubator.
Cells were harvested and mitochondria DNA extraction was performed using DNeasy Blood & Tissue Kit (Qiagen) according to the manufacture's instruction.
Mitochondria 7S and housekeeping genes 18S and GAPDH DNA was quantified by multiplex qPCR with the PowerUp™ SYBR™ Green system (Applied Biosystems). Prepare reaction mix consisting of 5 μl of 2× PowerUp™ SYBR™ Green Master Mix, 1 μl of 5 μM Primers for 7S, 18S, or GAPDH, 4 μl of DNA template from DNA extraction above. The primer sequences are below:
qPCR was performed on QuantStudio™ 7 Flex RealTime qPCR system (Applied Biosystems) as set forth below: • a. 50° C. for 2 minutes, then • b. 95° C. for 2 minutes, then • c. 95° C. for 15 seconds, then • d. 60° C. for 60 seconds, • where then steps (c) and (d) were repeated 60 times.
Threshold was calculated by QuantStudio™ 7 Flex Software (ThermoFisher Scientific) using the default settings. Ct values were used to evaluate the relative mitochondria DNA (mtDNA) level using the following formula: ΔCt=Ct (7S target gene)−Ct (18S) or ΔCt=Ct (7S target gene)−Ct (GAPDH). Relative mtDNA level=2^−Δct. Expression fold over DMSO control=2^−Δct (compound treated group)/2^−Δct (DMSO group)
In the table “A” represents values≤0.1 μM; “B” represents values from >0.1 μM to ≤1.0 μM; “C” represents values from >1.0 μM to ≤10.0 μM; “D” represents values from >10.0 μM to ≤100.0 μM; and “E” represents values>100.0 μM.

THP1-Dual KO-TREX1 cells [4] = assay: THP1 TREX1 KO inhibition assay, combination dosing; details: Homo sapiens, THP1-Dual, read-out: EC50 of Stampidine
Description: Exemplary compounds were tested to determine the effect of combined dosing of two compounds on the type 1 interferon response in THP1 Dual TREX1 KO cells treated with 5-aza-2′-deoxycytidine. Assay procedures and results are described below.
THP1 Dual TREX1 KO cells were purchased from InvivoGen. The THP1-Dual™ KO-TREX1 cells were cultured in RPMI 1640, 10% heat-inactivated fetal bovine serum, 25 mM HEPES, 10 μg/mL blasticidin, and 100 μg/mL Zeocin. THP1-Dual™ KO-TREX1 cells were treated with a dose titration of test compound in the presence of 1 μM 5-aza-2′-deoxycytidine (Sigma, cat #189825). Type 1 Interferon and cell viability were assessed after five days of treatment.
Stock solution of test compounds stampidine and Compound 2 were prepared in DMSO followed by a three-fold dilution in DMSO. The plate was prepared with a matrix of test compound concentrations, with stampidine on the y-axis (final concentrations 3 μM to 0.0003 μM) and Compound 2 on the x-axis (final concentrations 0.3 μM to 0.00003 μM). Additional 50× dilution was prepared in cell culture media for each dilution. 10 μL of diluted test compound was then added to a 384-well plate.
THP1-Dual™ KO-TREX1 cells were treated with 1 μM 5-aza-2′-deoxycytidine. THP1-Dual™ KO-TREX1 cells (50 μL) were added to each well of the 384-well plate containing test compound titration at 10,000 cells/well. Cells were incubated at 37° C., 5% CO2 in a humidified incubator for five days. On day five, 20 μL of cell supernatant was transferred to a 384-well, white-walled plate, followed by addition to each well of 50 μL of QUANTI-LUC solution containing stabilizer. Luminescence was detected on a plate reader according to manufacturer's instructions. Percent inhibition of interferon was calculated using the following analysis: (Average DMSO-Sample)/(Average DMSO-Average 30 μM stampidine)*100.
The remaining cells were assessed for cell viability by adding 30 μl of CellTiter-Glo (Promega, G9683) solution to each well, and placed on a shaker for 10 minutes at room temperature. Luminescence was detected on a plate reader, according to manufacturer's instructions. Percent inhibition of cell viability using CellTiter-Glo was calculated using the following analysis: (Average DMSO−Sample)/(Average DMSO−Average 20 μM viability control reagent)*100.
Combination analysis was performed using the Bivariate Response to Additive Interacting Doses (BRAID) according to Twarog, N. R., et al. Scientific Reports 6:25523 (DOI: 10.1038/srep25523). The best BRAID fit was determined to be k 2.00 (0.583-3.64), where k>0 denotes synergy, k=0 denotes additivity, and k<0 denotes antagonism. Potentiation modeling curves are provided for potentiation of Compound 2 at four concentrations of stampidine (FIG. 7A) and for potentiation of stampidine at four concentrations of Compound 2 (FIG. 7B).

IC50 (THP1-Dual KO-TREX1 cells [1]) | IC50 (7S mitochondria DNA) | Structure (SMILES) | IFN-β production (human PBMC) | IC50 [2] | IC50 [3] | IC50 (PC3 cells) | EC50 (THP1-Dual KO-TREX1 cells [4]; Compound 2 0 μM) | EC50 (THP1-Dual KO-TREX1 cells [4]; Compound 2 0.0001 μM) | EC50 (THP1-Dual KO-TREX1 cells [4]; Compound 2 0.001 μM) | EC50 (THP1-Dual KO-TREX1 cells [4]; Compound 2 0.01 μM)
> 1 µM | > 100 µM | C#C[C@]1(CO)O[C@@H](n2cc(F)c(N)nc2=O)[C@@H](O)[C@@H]1O [Compound 116, 4-amino-1-((2R,3S,4S,5R)-5-ethynyl-3,4-dihydroxy-5-(hydroxymethyl)tetrahydrofuran-2-yl)-5-fluoropyrimidin-2(1H)-one] | – | > 100 µM | > 100 µM | > 100 µM | – | – | – | –
0.05 to 0.1 µM | > 100 µM | [N-]=[N+]=N[C@]1(CO)O[C@@H](c2cc(I)c3c(N)ncnn23)C[C@@H]1O [Compound 161, (2R,3S,5R)-5-(4-amino-5-iodopyrrolo[2,1-f][1,2,4]triazin-7-yl)-2-azido-2-(hydroxymethyl)tetrahydrofuran-3-ol] | – | 1 to 10 µM | 1 to 10 µM | 1 to 10 µM | – | – | – | –

The next lines start with the compound.

Structure (SMILES) | IC50 (THP1-Dual KO-TREX1 cells [1]) | IC50 (7S mitochondria DNA) | IFN-β production (human PBMC) | IC50 [2] | IC50 [3] | IC50 (PC3 cells) | EC50 (THP1-Dual KO-TREX1 cells [4]; Compound 2 0 μM) | EC50 (THP1-Dual KO-TREX1 cells [4]; Compound 2 0.0001 μM) | EC50 (THP1-Dual KO-TREX1 cells [4]; Compound 2 0.001 μM) | EC50 (THP1-Dual KO-TREX1 cells [4]; Compound 2 0.01 μM)
C#C[C@]1(CO)O[C@@H](n2cnc3c(N)nc(F)nc32)C[C@@H]1O [Compound 23, (2R,3S,5R)-5-(6-amino-2-fluoro-9H-purin-9-yl)-2-ethynyl-2-(hydroxymethyl) tetrahydrofuran-3-ol] | > 1 µM | – | activated production of IFN-β | 10 to 50 µM | 50 to 100 µM | 10 to 50 µM | – | – | – | –
CC(C)C(=O)OC[C@@]1(CCl)O[C@@H](n2cc(F)c(N)nc2=O)[C@@H](F)[C@@H]1OC(=O)C(C)C [Compound 173, (2R,3R,4S,5R)-5-(4-amino-5-fluoro-2-oxopyrimidin-1(2H)-yl)-2-(chloromethyl)-4-fluoro-2-((isobutyryloxy)methyl) tetrahydrofuran-3-yl isobutyrate] | > 1 µM | > 100 µM | – | 50 to 100 µM | > 100 µM | > 100 µM | – | – | – | –
COC(=O)C(C)NP(=O)(OC[C@@H]1C=C[C@H](n2cc(C)c(=O)[nH]c2=O)O1)Oc1ccc(Br)cc1 (stereo partly drawn) [Stampidine, stampidine, reference compound] | – | – | – | – | – | – | 0.115 µM | 0.103 µM | 0.08 µM | 0.029 µM
